From the supplement of paper PMC10307832

Experiments:
Experiment in all cases: relative viability (nuclei count vs DMSO), 5 days (fraction); higher = more cells survive
[1] = compound: CC1(COc2ccc3c(c2)ncn3-c2ccc3cccc(N4CCC(N)CC4)c3n2)COC1 [Crenolanib]
Outline: (§1)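 On vehicle-anchored 1536-well plates, lung cancer cell lines held overnight at 37 °C were pinned with five library-drug doses (not always all listed) spaced by √10. With no medium change over 5 days, they were then fixed, permeabilised and Hoechst-stained in one step and imaged at 4×. MetaXpress counted nuclei, and viability is the median across plates of treated-well over vehicle-well nuclei. Acceptance needed control CV below 25% and at least one doubling.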

[2] = compound: O=C1NC(=O)[C@@H](c2cn3c4c(cccc24)CCC3)[C@@H]1c1c[nH]c2ccccc12 [Tivantinib]
Outline: as §1

[3] = compound: CC1(COc2ccc3c(c2)ncn3-c2ccc3cccc(N4CCC(N)CC4)c3n2)COC1 [Crenolanib] + CC1(C)CCC(c2ccc(Cl)cc2)=C(CN2CCN(c3ccc(C(=O)NS(=O)(=O)c4ccc(N[C@H](CCN5CCOCC5)CSc5ccccc5)c(S(=O)(=O)C(F)(F)F)c4)cc3)CC2)C1 [Navitoclax] (partner 0.5 µM)
Outline: (§2)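 Lung cancer cell lines were seeded in 1536-well plates and dosed by pin tool the next day, with either a single drug or a fixed anchor-drug dose combined with five library-drug doses (not always all listed) spaced in √10 steps. Five days later, one step fixed the cells and stained their nuclei (final 0.05% Triton X-100, 1% formaldehyde, 1 ug/ml Hoechst), and nuclei were counted on 4× images. Relative viability is the nuclei count in treated wells divided by the count in vehicle wells, and each value is the median of duplicate plates.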

[4] = compound: O=C1NC(=O)[C@@H](c2cn3c4c(cccc24)CCC3)[C@@H]1c1c[nH]c2ccccc12 [Tivantinib] + Cc1cc(Nc2cc(N3CCN(C)CC3)nc(Sc3ccc(NC(=O)C4CC4)cc3)n2)n[nH]1 [Tozasertib] (partner 0.1 µM)
Outline: as §2

UMC-11 gave a relative viability ([1]; 0.01 µM) of 0.963, a relative viability ([1]; 0.03162 µM) of 0.978 and a relative viability ([1]; 0.1 µM) of 0.972. The relative viability ([1]; 0.3162 µM) was 1.01, the relative viability ([1]; 1 µM) was 0.931 and the relative viability ([2]; 0.01 µM) was 0.966. It also gave a relative viability ([2]; 0.03162 µM) of 0.842, a relative viability ([2]; 0.1 µM) of 0.923 and a relative viability ([2]; 0.3162 µM) of 1.03. It also gave a relative viability ([3]; first compound 0.01 µM) of 0.333, a relative viability ([3]; first compound 0.03162 µM) of 0.331 and a relative viability ([3]; first compound 0.1 µM) of 0.301. For the same cell line, the relative viability ([3]; first compound 0.3162 µM) was 0.341, the relative viability ([3]; first compound 1 µM) was 0.31 and the relative viability ([4]; first compound 0.01 µM) was 0.202. For the same cell line, the relative viability ([4]; first compound 0.1 µM) was 0.178 and the relative viability ([4]; first compound 0.3162 µM) was 0.188.
